These results are taken from paper PMC12035931, “Biologically active withanolides from Physalis peruviana” (Pharmaceutical Biology, 2025).

For series [1], the system named is TNF-α-induced NF-κB activity. In words: Inhibition of TNF-α-activated NF-κB, luciferase reporter assay in HEK293 cells. The class given is cell-based, human. The following applies: Homo sapiens, HEK293; for inhibition at 50 µM: % inhibition at a concentration of 50 μM, TNF-α 2 ng/mL, 6 h, read-out: NF-κB assay % inhib.; for IC50: TNF-α-induced NF-κB luciferase, read-out: NF-κB assay IC50. The text has this: To study the inhibition of tumor necrosis factor-alpha (TNF-α)-induced activation of nuclear factor-kappa B (NF-κB), human embryonic kidney 293 cells (HEK293) stably transfected with an NF-κB-responsive luciferase reporter construct (Cat. No. RC0014, Panomics, Fremont, CA, USA) were utilized, following previously described protocols (Kondratyuk et al. [2012]). This cell line incorporates a chromosomally integrated luciferase reporter, which produces luciferase enzyme upon NF-κB activation. The enzyme reacts with its substrate to produce a luminescent signal, detectable via luminometry. Cells were seeded at a density of 2 × 10^4 cells/mL in 96-well plates and cultured in Dulbecco’s Modified Eagle Medium (DMEM, Cat. No. D6429, Sigma-Aldrich, Saint Louis, MO, USA) supplemented with 10% fetal bovine serum (FBS, Cat. No. A5670701, Gibco™, Thermo Fisher Scientific, Waltham, MA, USA). The medium also contained 100 µg/mL streptomycin sulfate and 100 IU/mL penicillin G (Cat. No.15140 Gibco BRL, Grand Island, NY, USA). The cells were then treated with varying concentrations of the test sample and stimulated with recombinant human TNF-α (2 ng/mL, Cat. No. HZ-1014, Proteintech Group, Inc. Rosemont, IL, USA).
Following a 6-hour incubation, the cells were rinsed with phosphate buffer saline (PBS), lysed with 40 μL of 1X Reporter Lysis Buffer (Cat. No. E2661, Promega, Madison, WI, USA), and subjected to a freeze-thaw cycle (−80 °C/37 °C). Luminescence, generated by the luciferase reaction, was quantified using the Luc assay system (Cat. No. N1610, Promega, Madison, WI, USA) and a LUMIstar Galaxy luminometer (BMG, Offenburg, Germany).
For orientation: Reporter assays use an easily measured gene product as a stand-in for the process of interest.

Series [2] deals with human embryonic kidney 293 cells (HEK293). Put plainly: Cell survival in the NF-κB assay. It counts as cell-based. The following applies: human, 6 h, 50 µM.
Series [3] deals with NO production in LPS-activated murine macrophage RAW 264.7 cells. In words: cells. It counts as cell-based, mouse. The following applies: for inhibition at 50 µM / IC50: Mus musculus; for inhibition at 50 µM: RAW264.7, 20 h, read-out: Nitrite assay % inhib.; for IC50: RAW264.7, read-out: Nitrite assay IC50. Here is the method:
The inhibition of nitric oxide (NO) production in lipopolysaccharide (LPS)-stimulated murine macrophage RAW 264.7 cells was evaluated following previously described methods (Min et al. [2009]). RAW 264.7 cell line was purchased from ATCC (Cat. No. TIB-71, Manassas, VA, USA) and cultured in Dulbecco’s modified Eagle’s medium (DMEM, Cat. No. 12800-082, Invitrogen, Massachusetts, USA) supplemented with 10% heat-inactivated fetal bovine serum (FBS, Cat. No. 26140, Gibco BRL Co, Grand Island, NY, USA), 100× penicillin G and streptomycin (Cat. No.11074440001, Sigma-Aldrich, Saint Louis, MO, USA) and 2 mM L-glutamine (Cat. No. 25030, Gibco BRL Co, Grand Island, NY, USA). Cells were seeded at 10 × 10^5 cells per well in 96-well plates and incubated for 24 h at 37 °C in a humidified atmosphere containing 5% CO2.
(§1) Test compounds were dissolved in phenol red-free DMEM (Cat. No. 12-917 F, Lonza, Massachusetts, USA) and added to the cells as a pretreatment for 30 min. The cells were then exposed to LPS (1 µg/mL, Cat. No. L-2762, Sigma-Aldrich, Saint Louis, MO, USA) for 20 h. Nitric oxide levels were quantified using the Griess reagent, which consists of a 1:1 (v/v) mixture of 1% sulfanilamide (Cat.No. A13001, Alfa Aesar, Massachusetts, USA) in H3PO4 and N-(1-naphthyl)ethylenediamine dihydrochloride (Cat. No. 102397, MP Biomedicals, USA). A standard curve was generated using sodium nitrite (Cat. No. 44227, Alfa Aesar, Massachusetts, USA), and IC50 values were calculated using Table Curve 2D software (Version 4.07, AISN Software Inc., Richmond, VA, USA). Also, a sulforhodamine B (SRB, Cat. No. S9012, Sigma-Aldrich, Saint Louis, MO, USA) assay was performed to assess the cytotoxic effects of the test compounds on RAW 264.7 cells.

Series [4] can be described thus: SRB cytotoxicity / survival of RAW 264.7 cells in the nitrite assay. The class given is cell-based, mouse. The following applies: mouse; cytotoxicity in RAW 264.7 cells, NO assay; read-out: cytotoxic IC50. The protocol:
as §1

Series [5] deals with RAW 264.7 cells. Described as above. To be noted: % survival at a concentration of 50 μM, RAW 264.7. The class given is cell-based, mouse. The protocol:
as §1

Series [6] has as its system NO-production in LPS-stimulated RAW 264.7 cells. The arrangement: method as in Choudhari et al. [2013]; Park et al. [2019]. The following applies: ref Choudhari et al. [2013], Park et al. [2019], read-out: NO-production IC50 (literature); cited from earlier work.

By IC50 is commonly meant the midpoint of a concentration-inhibition curve. Turning to `CC1=C(C)C(=O)OC([C@](C)(O)[C@]2(O)CC[C@@]3(O)C4C[C@H]5O[C@]56[C@@H](O)C=CC(=O)[C@]6(C)C4CC[C@]23C)C1` (stereo partly drawn) [Compound 3, 4β-hydroxywithanolide E], the values for the inhibition at 50 µM in series [1] and in series [3] were 99.5 ± 0.1% and 99.2 ± 0.4%, respectively. Moreover, the half-maximal inhibitory concentration (IC50) is 40 ± 30 nM in series [1], 320 ± 20 nM in series [3] and 900 nM in series [6]. Moreover, the “NF-κB assay % surv.” value in series [2] is 88.6 ± 10.1%. In series [4], the IC50 at 20 h was determined as 14000 nM. In series [5], the “Nitrite assay % surv.” value stood at 50.1 ± 2.3%.
Take `CC(=O)O[C@H]1C=CC(=O)[C@]2(C)C3CC[C@]4(C)[C@](O)([C@@](C)(O)C5CC(C)=C(C)C(=O)O5)CC[C@@]4(O)C3C[C@H]3O[C@]132` (stereo partly shown) [Compound 3a]: in series [1], the inhibition at 50 µM is 99.9 ± 0.9% and the half-inhibitory concentration (IC50) amounted to 470 ± 610 nM. Besides, in series [2], the “NF-κB assay % surv.” value turned out to be 2.2 ± 2.6%. In series [3], the inhibition at 50 µM amounted to 99.2 ± 0.4% and the IC50 stood at 240 ± 10 nM. For the same compound, the “NO inhibitory activity” value in series [3] (compared with positive control L-NMMA / within the series) is reported as “most active”. The IC50 at 20 h in series [4] worked out at 2100 nM. Further, in series [5], the “Nitrite assay % surv.” value amounted to 38.9 ± 2.3%.
